In publication PMC8074941, “Synthesis of cyclotetrapeptide analogues of c-PLAI and evaluation of their antimicrobial properties” (Royal Society Open Science, 2021):
In brackets after ≈: the same amount, converted by molar mass. Like-named read-outs stand apart in the source and are kept apart here. Where a SMILES comes first, the peptide text is derived from it.

Experiments:
[1] = system: C. albicans ATCC 10231
Method: (§1) Tools and materials were sterilized in an autoclave for 15 min at 121°C. Fungal culture was grown in agar media (Potato Dextrose agar) by picking some fungal colony using an inoculating loop, followed by incubation at 30°C for 24–48 h. Fungal culture was then suspended in liquid media (Potato Dextrose Broth). The suspended fungal culture was then incubated for 24–48 h at 30°C. The suspended fungal culture was then incubated at 30°C for 24 h and standardized equal to 0.5 Mc Farland (2 × 10^8 CFU ml^−1). The culture was diluted into the concentration of 5 × 10^5 CFU ml^−1.
(§2) Six tetrapeptides and six cyclotetrapeptides were dissolved in DMSO 2% with a concentration of 1 µg mL^−1. Each solution was dissolved gradually. Subsequently, 12 sample solutions, ciprofloxacin, nystatin, ketoconazole and DMSO 2% were incubated on a 96-well microplate at 37°C for 18 h. The result was interpreted using a spectrophotometer, with a wavelength of 600 nm. MIC was measured as the percentage of microbial inhibition and cell death.

[2] = system: T. mentagrophyte; assay: microbe, parasite or virus in culture; conditions: 18 h
Method: as §1, §2

[3] = system: B. cereus ATCC 11778; assay: microbe, parasite or virus in culture
Method: as §1, with “Bacterial” for “Fungal”, “(Mueller Hinton” for “(Potato Dextrose”, “bacterial” for “fungal”, “37°C” for “30°C”, “24” for “24–48”, “bacterial” for “fungal culture was then incubated for 24–48 h at 30°C. The suspended fungal”
as §2

[4] = system: E. coli ATCC 11229; assay: microbe, parasite or virus in culture; conditions: for minimum inhibitory concentration (MIC) E. coli ATCC 11229: ATCC 11229, 18 h
Method: as §1, with “Bacterial” for “Fungal”, “(Mueller Hinton” for “(Potato Dextrose”, “bacterial” for “fungal”, “37°C” for “30°C”, “24” for “24–48”, “bacterial” for “fungal culture was then incubated for 24–48 h at 30°C. The suspended fungal”
as §2

[5] = system: K. pneumonia ATCC 2357; assay: microbe, parasite or virus in culture; conditions: for minimum inhibitory concentration (MIC) K. pneumonia ATCC 2357: ATCC 2357, 18 h
Method: as §1, with “Bacterial” for “Fungal”, “(Mueller Hinton” for “(Potato Dextrose”, “bacterial” for “fungal”, “37°C” for “30°C”, “24” for “24–48”, “bacterial” for “fungal culture was then incubated for 24–48 h at 30°C. The suspended fungal”
as §2

[6] = system: S. aureus ATCC 6538; assay: microbe, parasite or virus in culture
Method: as §1, with “Bacterial” for “Fungal”, “(Mueller Hinton” for “(Potato Dextrose”, “bacterial” for “fungal”, “37°C” for “30°C”, “24” for “24–48”, “bacterial” for “fungal culture was then incubated for 24–48 h at 30°C. The suspended fungal”
as §2

[7] = Potato Dextrose Broth, 5 × 10^5 CFU ml^−1, DMSO 2%, 96-well microplate, 37°C, 18 h, read at 600 nm, single experiment
[8] = Mueller Hinton Broth, 5 × 10^5 CFU ml^−1, DMSO 2%, 96-well microplate, 37°C, 18 h, read at 600 nm, single experiment

Row | minimum inhibitory concentration (MIC) C. albicans ATCC 10231 ([1]; ATCC 10231, 18 h) | minimum inhibitory concentration (MIC) T. mentagrophyte [2] | minimum inhibitory concentration (MIC) B. cereus ATCC 11778 ([3]; ATCC 11778, 18 h) | minimum inhibitory concentration (MIC) E. coli ATCC 11229 [4] | minimum inhibitory concentration (MIC) K. pneumonia ATCC 2357 [5] | minimum inhibitory concentration (MIC) S. aureus ATCC 6538 ([6]; ATCC 6538, 18 h) | Compound | also measured
1 | 250 µg/mL (≈ 585 µM) | 500 µg/mL (≈ 1170 µM) | 500 µg/mL (≈ 1170 µM) | 250 µg/mL (≈ 585 µM) | 500 µg/mL (≈ 1170 µM) | 500 µg/mL (≈ 1170 µM) | CC[C@H](C)[C@H](NC(=O)[C@H](C)NC(=O)[C@H](CCCCN)NC(=O)[C@@H]1CCCN1)C(=O)O [PKAI] (H-PKAI-OH) | 
2 | >1000 µg/mL |  | 500 µg/mL (≈ 1020 µM) | >1000 µg/mL | >1000 µg/mL | >1000 µg/mL | CC[C@H](C)[C@H](NC(=O)[C@H](Cc1ccccc1)NC(=O)[C@H](CC(C)C)NC(=O)[C@@H]1CCCN1)C(=O)O [PLFI] (H-PLFI-OH) | 
3 | >1000 µg/mL |  | 500 µg/mL (≈ 1130 µM) | 500 µg/mL (≈ 1130 µM) | 500 µg/mL (≈ 1130 µM) | >1000 µg/mL | CC[C@H](C)[C@H](NC(=O)[C@@H](NC(=O)[C@H](CC(C)C)NC(=O)[C@@H]1CCCN1)C(C)C)C(=O)O [PLVI] (H-PLVI-OH) | 
4 |  |  |  |  |  |  | C[C@@H]1[C@H](O)[C@@H](C)/C=C/C=C/CC/C=C/C=C/C=C/C=C/C(O[C@H]2O[C@H](C)[C@@H](O)[C@H](N)[C@@H]2O)CC2O[C@](O)(CC(O)C(O)CCC(O)CC(O)CC(O)CC(=O)O[C@H]1C)CC(O)C2C(=O)O (stereo partly drawn) [Nystatin, reference compound] | minimum inhibitory concentration (MIC) C. albicans ATCC 10231 [1, 7]: 4.88 µg/mL (≈ 5.27 µM)
5 | 500 µg/mL (≈ 1060 µM) | 250 µg/mL (≈ 531 µM) | 125 µg/mL (≈ 266 µM) | 125 µg/mL (≈ 266 µM) | 250 µg/mL (≈ 531 µM) | 500 µg/mL (≈ 1060 µM) | CC[C@H](C)[C@@H]1NC(=O)[C@H](Cc2ccccc2)NC(=O)[C@H](CC(C)C)NC(=O)[C@@H]2CCCN2C1=O [c-PLFI, cyclo-(pro-leu-phe-ile)] (cyclo(PLFI)) | 
6 |  |  |  |  |  |  | O=C(O)c1cn(C2CC2)c2cc(N3CCNCC3)c(F)cc2c1=O [Ciprofloxacin, reference compound] | MIC ([3]; Bacillus cereus, ATCC11778, 18 h, read-out: minimum inhibitory concentration (MIC) B. cereus ATCC 11778): 0.195 µg/mL (≈ 0.589 µM); MIC ([4]; Escherichia coli, ATCC11229, 18 h, read-out: minimum inhibitory concentration (MIC) E. coli ATCC 11229): 1.56 µg/mL (≈ 4.71 µM); MIC ([5]; Klebsiella pneumoniae, ATCC2357, 18 h, read-out: minimum inhibitory concentration (MIC) K. pneumonia ATCC 2357): 0.391 µg/mL (≈ 1.18 µM); MIC ([6]; Staphylococcus aureus, ATCC6538, 18 h, read-out: minimum inhibitory concentration (MIC) S. aureus ATCC 6538): 0.098 µg/mL (≈ 0.296 µM)
7 |  |  |  |  |  |  | CC(=O)N1CCN(c2ccc(OCC3COC(Cn4ccnc4)(c4ccc(Cl)cc4Cl)O3)cc2)CC1 (stereo not drawn) [Ketokonazole, reference compound] | MIC ([2]; Trichophyton mentagrophytes, read-out: minimum inhibitory concentration (MIC) T. mentagrophyte): 312 µg/mL (≈ 588 µM)
8 | >1000 µg/mL |  |  | 125 µg/mL (≈ 297 µM) | 250 µg/mL (≈ 594 µM) | 250 µg/mL (≈ 594 µM) | CC[C@H](C)[C@@H]1NC(=O)[C@@H]2CCCN2C(=O)[C@H](CC(C)C)NC(=O)[C@@H]2CCCN2C1=O [c-PLPI, cyclo(pro-leu-pro-ile)] (cyclo(PLPI)) | 
9 | >1000 µg/mL |  |  | >1000 µg/mL | 250 µg/mL (≈ 606 µM) | >1000 µg/mL | CC[C@H](C)[C@H](NC(=O)[C@H](C)NC(=O)[C@H](CC(C)C)NC(=O)[C@@H]1CCCN1)C(=O)O [PLAI] (H-PLAI-OH) | 

Row | Compound | minimum inhibitory concentration (MIC) C. albicans ATCC 10231 ([1]; ATCC 10231, 18 h) | minimum inhibitory concentration (MIC) T. mentagrophyte [2] | minimum inhibitory concentration (MIC) B. cereus ATCC 11778 ([3]; ATCC 11778, 18 h) | minimum inhibitory concentration (MIC) E. coli ATCC 11229 [4] | minimum inhibitory concentration (MIC) K. pneumonia ATCC 2357 [5] | minimum inhibitory concentration (MIC) S. aureus ATCC 6538 ([6]; ATCC 6538, 18 h) | also measured
10 | CC[C@H](C)[C@@H]1NC(=O)[C@H](Cc2ccccc2)NC(=O)[C@H](CCCCN)NC(=O)[C@@H]2CCCN2C1=O [c-PKFI, cyclo-(pro-lys-phe-ile)] (cyclo(PKFI)) |  | 125 µg/mL (≈ 257 µM) |  | 31.25 µg/mL (≈ 64.3 µM) | 250 µg/mL (≈ 515 µM) |  | minimum inhibitory concentration (MIC) C. albicans ATCC 10231 [1, 7]: 62.50 µg/mL (≈ 129 µM); minimum inhibitory concentration (MIC) B. cereus ATCC 11778 [3, 8]: 62.5 µg/mL (≈ 129 µM); minimum inhibitory concentration (MIC) S. aureus ATCC 6538 [6, 8]: 62.5 µg/mL (≈ 129 µM)
